From patent US20250026741A1, “INHIBITORS OF THE ONCOGENIC SHP2 PHOSPHATASE AND USES THEREOF” (Sanford Burnham Prebys Medical Discovery Institute, priority 2021, published 2025)

Tests used:
SHP2cat = SHP2cat (Homo sapiens (Human), UniProt Q06124); assay: Protein thermal shift (PTS) assay; assay type: binding; conditions: vs vehicle (DMSO) control
Excerpt: We confirmed specific and dose-dependent binding of inhibitors to SHP2 by protein thermal shift, which monitors the thermal stability of a target protein in vitro. […] In addition, we confirmed the inhibitory activity of several furanylbenzamide inhibitors, including the top two compounds #02 and #01, in SHP2cat inhibition assays using the alternative substrate 3-O-methylfluorescein phosphate (OMFP), which features a peak fluorescence emission that is red-shifted by […] compared to DiFMUP. The Km value of OMFP for SHP2cat was determined to be 50 μM. An OMFP fluorescence intensity-based assay was used to perform inhibitor dose-response experiments and determine IC50 values.
Differential scanning fluorimetry (also known as protein thermal shift) measurements of SHP2cat were performed. #02 was spotted at different concentrations into MicroAmp®384-well real-time PCR plates (#4483285, Applied Biosystems, Waltham, MA) using an Echo 555 Liquid Handler. […] Plates were analyzed using a ViiA® 7 Real-Time PCR instrument (Applied Biosystems, Waltham, MA) and a 12 min temperature gradient with a temperature increase of 0.075° C./s. The melting temperature and thermal profiles were determined using Protein Thermal Shift™ Software v1.3 (Applied Biosystems, Waltham, MA).

[1] = tested on: MOLM-13 AML cells (expressing WT SHP2); assay: Cell viability assay (CellTiter-Glo), MOLM-13; assay type: cell-based; conditions: Homo sapiens, MOLM-13, 72 h, regular MOLM-13 cells, CRISPR comparison experiment
Protocol: Next, we performed an 11-day colony formation assay with TNBC cells treated with #02 or SHP099 at 5, 10, or 20 μM (FIG. 3D).
Finally, we evaluated the selectivity of our top two compounds, #01 and #02, on MOLM-13 AML cells in which SHP2 was depleted using CRISPR-Cas9 knock-out (KO). High-efficiency Cas9-editing MOLM-13 cells were generated by transducingMOLM-13 cells with a Cas9 lentiviral construct. Stable clones were tested for editing efficiency by performing TIDE analysis (45), and these MOLM13-Cas9 cells were transduced with a lentiviral construct containing an AAVS1 single guide RNA (sgRNA) and an mCherry reporter for bulk-sorting of cells with successful AAVS1 editing. […] Cells were treated with inhibitors at various concentrations (ranging from […] to 58 nM) or vehicle control (DMSO) for 72 h, before cell viability was assessed.
Viability of AML, esophageal carcinoma, and TF-1 cells was assessed using the ATP-depletion assay CellTiter-Glo® (Promega). Cells were harvested at 1×10^6/mL to 2×10^6 cells/mL with cell numbers determined by trypan blue using the Countess Cell counter (Thermo Scientific) and resuspended in culture media. […] Luminescence was read on a Tecan Spark® Multimode Microplate Reader and data analyzed using Graph Pad Prism software. […]

[2] = tested on: patient-derived AML cells; assay: Viability of AML patient-derived cells; assay type: cell-based, human; conditions: 10 μM, two patient samples, 2 d, 4 d, or 6 d
Excerpt: Patient-derived AML cells were obtained from Carol Burian and Dr. James Mason (Scripps MD Anderson, La Jolla, CA) under approved IRB protocol 13-6180. Peripheral blood mononuclear cells (PBMCs) were isolated by traditional Ficoll-Paque™ PLUS (17-1440-02, GE Healthcare) centrifugation according to the manufacturer's instructions, and red blood cells were lysed using RBC Lysis Buffer (Alfa Aesar, cat. #J62990). Final PBMCs were resuspended in Bambanker serum-free freezing medium (Wako Pure Chemical Industries, Ltd.) and stored frozen before cell viability was assessed as described below.
Viability of AML, esophageal carcinoma, and TF-1 cells was assessed using the ATP-depletion assay CellTiter-Glo® (Promega). Cells were harvested at 1×10^6/mL to 2×10^6 cells/mL with cell numbers determined by trypan blue using the Countess Cell counter (Thermo Scientific) and resuspended in culture media. 3K cells (in […]) were seeded in a 384-well format white, clear bottom microplate (#781098, Greiner) spotted with test compound or vehicle control (DMSO) using an Echo 555 Liquid Handler. […] Luminescence was read on a Tecan Spark® Multimode Microplate Reader and data analyzed using Graph Pad Prism software.

SHP2cat, sequence (Q06124 248-527): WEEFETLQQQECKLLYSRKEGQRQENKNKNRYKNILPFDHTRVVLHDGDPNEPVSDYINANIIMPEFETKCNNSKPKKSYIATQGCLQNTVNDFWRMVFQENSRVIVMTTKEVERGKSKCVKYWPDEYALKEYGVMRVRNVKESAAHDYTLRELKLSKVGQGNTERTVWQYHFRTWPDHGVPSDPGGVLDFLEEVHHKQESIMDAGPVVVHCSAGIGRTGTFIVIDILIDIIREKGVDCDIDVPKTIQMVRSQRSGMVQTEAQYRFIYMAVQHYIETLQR

SMILES: O=C(Nc1ccccc1)c1cc(-c2ccc(/C=C3\Sc4ccccc4C3=O)o2)ccc1O [#02, (Z)-2-hydroxy-5-(5-((3-oxobenzo[b]thiophen-2(3H)-ylidene)methyl)furan-2-yl)-N-phenylbenzamide]
- change of SHP2cat melting temperature (Tm) (SHP2cat): dose-dependently increased the melting temperature
- IC50 [1]: 15 µM
- effect on growth of patient-derived AML samples [2]: inhibited the growth of both AML patient samples
